From patent US7772252B2, “Heterocyclic substituted carbonyl derivatives and their use as dopamine D3 receptor ligands” (Aventis Pharmaceuticals Inc., priority 2001, dated 2010)

molecular target: T1, cloned human dopamine D3 receptors (Homo sapiens, UniProt P35462); assay: [N-Methyl-3H]Spiroperidol binding to cloned human dopamine D3 receptors; settings: read-out: D3 Ki
T1 construct: expressed in transfected cells; membrane homogenate
Text: [N-Methyl-^3H]Spiroperidol Binding to Cloned Human Dopamine D3 Receptors
This assay measures the in vitro activity of compounds on cloned human dopamine (D3) receptors and predicts the direct dopamine-blocking properties of putative neuropsychiatric agents at human dopamine D3 receptors.
The D3 gene was isolated from a human striatal cDNA library (Stratagene). The gene was sequenced and sub-cloned into the expression vector RC/RSV (Invitrogen). CHO (Chinese Hamster Ovary) cells were stably transfected with 10 μg of the D3/RSV plasmid using the DOTAP method from Boehringer Mannheim and 72 clones that were G418 resistant were isolated. Using mRNA and binding displacement data a single high expressing clone was identified. This clone was then grown in large batches for the purpose of developing a 96 well format assay.
• 1. One plate (10 cm) with approximately 2-3 million D3 cells per plate is incubated with 1 ml of Trypsin-EDTA at room temperature for ˜2 min or until cells have lifted off plates. Four ml of Ham's F12+10% Fetal Bovine Serum+1% Penicillin/Streptomycin+G418 (400 μg/ml) medium are added to resuspend cells and 1 ml of this is added to each large plate (15 cm) containing 19 ml of the same medium as mentioned above. • 2. The 5 large plates are incubated at 37° C.+5% CO2 for ˜3 days or until the cells are confluent. • 3. After these plates are confluent, they are split into 10 large plates. Medium is aspirated off, 2 ml of Trypsin-EDTA are added to each plate and plates are incubated at RT for 2 min or until cells have lifted off the plate. Eight ml of the F12 medium (same medium as #1 above) are added to each plate (10 ml total) to resuspend the cells and 5 ml are transferred to the 2 new plates containing 15 ml of the F12 media. • 4. The 10 large plates are incubated at 37° C.+5% CO2 for ˜2 days or until the cells are confluent. • 5. The 10 large plates are split into 60 large plates (using Trypsin-EDTA as #3 except 4 ml of F12 medium are added to resuspend cells and 1 ml is aliquoted to 6 new plates containing 19 ml of F12 medium each). • 6. Plates are incubated at 37° C.+5% CO2 for ˜3 days or until cell are confluent. • 7. The 60 large plates are then split into 60 roller bottles (100-150 million cells/bottle). Medium is aspirated off, 2 ml of Trypsin-EDTA are added to each plate and incubated at RT for ˜2 minutes or until cells have lifted off plates. Eight ml of F12 medium are added to each plate to resuspend cells and the entire 10 ml are added to 1 roller bottle containing 90 ml of the F12 medium. • 8. The 60 roller bottles are immediately placed on their sides and transferred to the roller bottle incubator. They are incubated at 37° C.+5% CO2 for ˜3-5 days. Cells are spun at 30-40% motor speed in the Form a incubator. • 9. Medium is poured off and cells are washed 2× in PBS. • 10. Cells are then scraped off in 20 ml of PBS and the bottles are rinsed again with 5 ml of PBS to remove any remaining cells. Cells are stored on ice before membrane preparation. • 11. The yield for 60 D3 roller bottles has varied from ˜260-500 mg. • Note: All tissue culture reagents are from Gibco-BRL. C. Membrane Preparation
The cells are harvested into 250 ml centrifuge tubes with 100 volumes of cold phosphate buffered saline (PBS) and spun down (1200×G for 10 min at 4° C.). The medium is removed and 100 ml PBS are added to each centrifuge tube, cells are resuspened and spun down again. The PBS is removed and the final pellet is homogenized in an appropriate volume of 10% DMSO with a polytron on ice at a medium setting.
A 200 μl sample membrane homogenate is added to 200 μl of 1% SDS, vortexed and allowed to stand for 5 min. Aliquots (25, 50 and 100 μl) of this mixture are assayed in duplicate following the standard Bio-Rad DC protein assay protocol (kit catalog number 500-0112) and using reagent S. Absorbance readings are made at 750 nm (note: the most accurate protein OD readings are between 0.1-0.5 units). […]

T1 sequence (P35462 whole entry): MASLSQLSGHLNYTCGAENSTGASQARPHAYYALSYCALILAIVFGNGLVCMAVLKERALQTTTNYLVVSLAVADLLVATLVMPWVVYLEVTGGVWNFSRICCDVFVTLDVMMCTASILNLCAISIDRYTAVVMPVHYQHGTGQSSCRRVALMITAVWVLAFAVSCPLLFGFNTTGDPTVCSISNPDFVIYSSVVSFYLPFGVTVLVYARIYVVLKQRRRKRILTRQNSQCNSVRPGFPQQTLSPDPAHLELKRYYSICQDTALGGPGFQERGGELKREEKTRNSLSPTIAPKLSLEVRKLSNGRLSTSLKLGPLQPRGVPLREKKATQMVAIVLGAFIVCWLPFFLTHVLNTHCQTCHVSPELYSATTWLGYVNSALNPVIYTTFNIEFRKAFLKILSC

SMILES | Ki [nM]
O=C(NCCc1cccc(F)c1)C1CC1CN1CCC(c2noc3ccsc23)CC1 (racemic) [compound 831801] | 11.2
O=C(NCCc1ccc(F)cc1)C1CC1CN1CCC(c2noc3ccsc23)CC1 (racemic) [compound 831802] | 13.4
Cc1ccc(CCNC(=O)C2CC2CN2CCC(c3noc4ccsc34)CC2)cc1 (racemic) [compound 831803] | 7.44
COc1cccc(CCNC(=O)C2CC2CN2CCC(c3noc4ccsc34)CC2)c1 (racemic) [compound 831804] | 9.89
COc1ccccc1CCNC(=O)C1CC1CN1CCC(c2noc3ccsc23)CC1 (racemic) [compound 831805] | 10.2
COc1cccc(C(=O)NNC(=O)C2CC2CN2CCC(c3noc4ccsc34)CC2)c1 (racemic) [compound 831811] | 819
O=C(NNC(=O)C1CC1CN1CCC(c2noc3ccsc23)CC1)c1ccc(Cl)cc1 (racemic) [compound 831812] | 453
O=C(NC1CCN(Cc2ccc3ccccc3c2)CC1)C1CC1CN1CCC(c2noc3ccsc23)CC1 (racemic) [compound 831818] | 0.117
O=C(NC1CCN(Cc2cc(Cl)cc(Cl)c2)CC1)C1CC1CN1CCC(c2noc3ccsc23)CC1 (racemic) [compound 831819] | 0.1
O=C(NC1CCN(Cc2ccc(Oc3ccccc3)cc2)CC1)C1CC1CN1CCC(c2noc3ccsc23)CC1 (racemic) [compound 831820] | 6.54
O=C(NC1CCN(Cc2c(Cl)cccc2Cl)CC1)C1CC1CN1CCC(c2noc3ccsc23)CC1 (racemic) [compound 831821] | 24.1
O=C(NC1CCN(Cc2cccc3ccccc23)CC1)C1CC1CN1CCC(c2noc3ccsc23)CC1 (racemic) [compound 831822] | 1.38
O=C(NC1CCN(Cc2cccc(C(F)(F)F)c2)CC1)C1CC1CN1CCC(c2noc3ccsc23)CC1 (racemic) [compound 831831] | 6.31
O=C(C1CC1CN1CCC(c2noc3ccsc23)CC1)N1CCN(S(=O)(=O)c2ccccc2)CC1 (racemic) [compound 831835] | 234
O=C(C1CC1CN1CCC(c2noc3ccsc23)CC1)N1CCN(S(=O)(=O)c2ccc(-c3ccccc3)cc2)CC1 (racemic) [compound 831836] | 94.3
O=C(C1CC1CN1CCC(c2noc3ccsc23)CC1)N1CCN(S(=O)(=O)Cc2ccccc2)CC1 (racemic) [compound 831837] | 491

SMILES | Ki [nM]
O=C(C1CC1CN1CCC(c2noc3ccsc23)CC1)N1CCN(S(=O)(=O)C=Cc2ccccc2)CC1 (racemic) [compound 831838] | 141
Cc1ccc(CN2CCC(NC(=O)C3CC3CN3CCC(c4noc5ccsc45)CC3)CC2)cc1 (racemic) [compound 831992] | 4.81
O=C(NC1CCN(Cc2ccc(F)cc2)CC1)C1CC1CN1CCC(c2noc3ccsc23)CC1 (racemic) [compound 831993] | 2.51
O=C(NC1CCN(Cc2cccc(F)c2)CC1)C1CC1CN1CCC(c2noc3ccsc23)CC1 (racemic) [compound 831994] | 2.68
O=C(NC1CCN(Cc2cccc(Cl)c2)CC1)C1CC1CN1CCC(c2noc3ccsc23)CC1 (racemic) [compound 831995] | 4.73
O=C(NC1CCN(Cc2ccccc2Cl)CC1)C1CC1CN1CCC(c2noc3ccsc23)CC1 (racemic) [compound 831996] | 7.97
O=C(NC1CCN(Cc2ccc(Cl)cc2)CC1)C1CC1CN1CCC(c2noc3ccsc23)CC1 (racemic) [compound 831997] | 3.55
O=C(NC1CCN(Cc2ccc(Cl)c(Cl)c2)CC1)C1CC1CN1CCC(c2noc3ccsc23)CC1 (racemic) [compound 831998] | 7.46
O=C(C1CC1CN1CCC(c2noc3ccsc23)CC1)N1CCN(Cc2ccncc2)CC1 (racemic) [compound 831999] | 473
O=C(C1CC1CN1CCC(c2noc3ccsc23)CC1)N1CCN(CCc2ccncc2)CC1 (racemic) [compound 832000] | 79.6
O=C(NCCS(=O)(=O)c1cccc2cnccc12)C1CC1CN1CCC(c2noc3ccsc23)CC1 (racemic) [compound 832044] | 657
CC(C)(C)c1ccc(CCNC(=O)C2CC2CN2CCC(c3noc4ccsc34)CC2)cc1 (racemic) [compound 832046] | 35.5
O=C(NCCc1cccc(C(F)(F)F)c1)C1CC1CN1CCC(c2noc3ccsc23)CC1 (racemic) [compound 832047] | 25.8
O=C(C1CC1CN1CCC(c2noc3ccsc23)CC1)N1CCN(CCc2cccs2)CC1 (racemic) [compound 832049] | 6.54
O=C(C1COc2ccccc2O1)N1CCN(C(=O)C2CC2CN2CCC(c3noc4ccsc34)CC2)CC1 (racemic) [compound 832055] | 112
O=C(C1CC1CN1CCC(c2noc3ccsc23)CC1)N1CCN(CCc2ccccc2)CC1 (racemic) [compound 832057] | 21.7

Next, values leading:

Ki [nM] | SMILES
4.13 | O=C(C1CC1CN1CCC(c2noc3ccsc23)CC1)N1CCN(c2ccc(OCc3ccccc3)cc2)CC1 (racemic) [compound 832059]
30.7 | O=C(C1CC1CN1CCC(c2noc3ccsc23)CC1)N1CCN(Cc2ccccc2)CC1 (racemic) [compound 832153]
21.9 | Cc1ccc(CN2CCN(C(=O)C3CC3CN3CCC(c4noc5ccsc45)CC3)CC2)cc1 (racemic) [compound 832154]
0.434 | COc1ccc(CN2CCN(C(=O)C3CC3CN3CCC(c4noc5ccsc45)CC3)CC2)cc1 (racemic) [compound 832155]
0.315 | O=C(C1CC1CN1CCC(c2noc3ccsc23)CC1)N1CCN(Cc2ccc(Cl)cc2)CC1 (racemic) [compound 832156]
0.226 | CC(C)(C)c1ccc(CN2CCN(C(=O)C3CC3CN3CCC(c4noc5ccsc45)CC3)CC2)cc1 (racemic) [compound 832157]
0.37 | Cc1cccc(CN2CCN(C(=O)C3CC3CN3CCC(c4noc5ccsc45)CC3)CC2)c1 (racemic) [compound 832158]
6.6 | O=C(C1CC1CN1CCC(c2noc3ccsc23)CC1)N1CCN(Cc2ccc(F)cc2)CC1 (racemic) [compound 832164]
30.1 | O=C(C1CC1CN1CCC(c2noc3ccsc23)CC1)N1CCN(Cc2ccc3c(c2)OCO3)CC1 (racemic) [compound 832165]
7.87 | O=C(NCCCc1ccn(S(=O)(=O)c2ccccc2)c1)C1CC1CN1CCC(c2noc3ccsc23)CC1 (racemic) [compound 832185]
16.1 | COc1ccc(CCNC(=O)C2CC2CN2CCC(c3noc4ccsc34)CC2)cc1OC (racemic) [compound 832186]
19.1 | CC1(C)CC(NC(=O)C2CC2CN2CCC(c3noc4ccsc34)CC2)CC(C)(C)N1 (racemic) [compound 832187]
10.1 | CC(C)N1CCN(C(=O)C2CC2CN2CCC(c3noc4ccsc34)CC2)CC1 (racemic) [compound 832188]
58.5 | C=CCN1CCN(C(=O)C2CC2CN2CCC(c3noc4ccsc34)CC2)CC1 (racemic) [compound 832189]
94.6 | COCCN1CCN(C(=O)C2CC2CN2CCC(c3noc4ccsc34)CC2)CC1 (racemic) [compound 832190]
8.06 | O=C(NCCC(c1ccccc1)c1ccccc1)C1CC1CN1CCC(c2noc3ccsc23)CC1 (racemic) [compound 832191]
7.81 | O=C(NCCCc1cc[nH]c1)C1CC1CN1CCC(c2noc3ccsc23)CC1 (racemic) [compound 832192]
13.1 | O=C(C1CC1CN1CCC(c2noc3ccsc23)CC1)N1CCC(n2ccnc2)CC1 (racemic) [compound 832193]
